Key:
CAM = system: CAM; set-up: method as in PMID 33823390; conditions: cited from earlier work
[1] = system: HCT116, A2780, A549, and MCF7 cell lines; set-up: method as in PMID 28702618; conditions: cited from earlier work
[2] = system: HCT116 (colorectal carcinoma cell line); experiment: MTS cell viability assay, 2D culture, HCT116; assay type: cell-based, human; conditions: 48 h of exposure
Description: (§1) The in vitro cytotoxic potential of Cu(II) complexes in tumor and healthy cells was assessed using the MTS assay, a colorimetric method that allows the quantification of viable cells in culture.[46]
Cell culture and maintenance
(§2) The cancer cell lines HCT116 (colorectal carcinoma) and A2780 (ovarian carcinoma) were obtained
(§3) from the American Type Culture Collection (ATCC®, Manassas, VA, USA), as well as the normal
human primary dermal fibroblasts.
(§4) Apart from the A2780 cell line, which was cultured in Roswell Park Memorial Institute (RPMI)
(§5) medium, all cells were cultured in Dulbecco’s modified Eagle medium (DMEM). Both media were
(§6) supplemented with 10% (v/v) fetal bovine serum (FBS) and 1% (v/v) of a Pen/Strep
(§7) (Penicillin/Streptomycin) solution. To maintain the resistant phenotype of the HCT116DoxR cell line,
(§8) the medium was additionally supplemented with 3.6 μM Dox4. All media and supplements were
(§9) purchased from Thermo Fischer Scientific (Waltham, MA, USA).
(§10) Cells were maintained in 25 cm2 T-flasks (T25) in a humidified atmosphere at 37 °C and 5% (v/v) CO
(§11) (SANYO CO2 Incubator, Electric Biomedical Co., Osaka, Japan).
(§12) The effect of Cu(II) complexes on cell viability was studied in HCT116, HCT116DoxR, and A2780
(§13) cancer cell lines and in normal human primary fibroblasts. Cells were seeded in a density of 0.75×105
(§14) cells/mL into 96-well plates and incubated in a humidified atmosphere at 37 °C and 5% (v/v) CO2 for
(§15) 24 h. After incubation, complexes were weighed, immediately solubilized in 100% (v/v) DMSO and
(§16) diluted for the final concentration with cell culture medium. The medium in each well was replaced by
(§17) a solution of fresh medium containing each Cu(II) complex (concentrations ranging from 0.01 μM to
(§18) as negative and positive controls, respectively.
(§19) Following a second incubation period of 48 h in the same conditions, the supernatant of each well was
(§20) replaced by a solution containing MTS reagent (3-(4,5-dimethylthiazol-2-yl)-5-(3-
(§21) carboxymethoxyphenyl)-2-(4-sulfophenyl)-2H-tetrazolium) provided by the CellTiter 96® AQueous
(§22) Non-Radioactive Cell Proliferation Assay Kit (Promega, Madison, WI, EUA) for a 30 minutes
(§23) incubation. The percentage of viable cells was indirectly determined by the spectrophotometric
(§24) quantification at 490 nm in a microplate reader, Tecan Infinite M200 (Tecan, Männedorf, Switzerland)
(§25) of formazan production, resultant from the reduction of the MTS reagent by mitochondrial
(§26) dehydrogenases. Since these enzymes are only active in viable cells, the absorbance value measured is
(§27) directly proportional to the percentage of viable cells in culture5.
(§28) By analysing the cell viability as a function of log10(concentration) using Prism 8 (GraphPad
(§29) in cell viability) of each complex in the respective cell line at 48 h. The selective index (SI) for each
(§30) complex was also determined by dividing the IC50 of human fibroblasts by the respective IC50 in each
(§31) cancer cell line (allowing us to understand how much active a complex is in tumor versus normal cell).

[3] = system: A2780 (ovarian carcinoma cell line); experiment: MTS cell viability assay, 2D culture, A2780; assay type: cell-based, human; conditions: 48 h of exposure
Description: as §1
Cell culture and maintenance
as §2, §3
human primary dermal fibroblasts.
as §4, §5, §6, §7, §8, §9, §10, §11, §12, §13, §14, §15, §16, §17, §18, §19, §20, §21, §22, §23, §24, §25, §26, §27, §28, §29, §30, §31

[4] = system: normal human primary dermal fibroblasts; experiment: MTS cell viability assay, normal fibroblasts; assay type: cell-based; conditions: 48 h of exposure
Description: as §1
Cell culture and maintenance
as §2, §3
human primary dermal fibroblasts.
as §4, §5, §6, §7, §8, §9, §10, §11, §12, §13, §14, §15, §16, §17, §19, §20, §22, §23, §24, §25

HCT116DoxR spheroids = experiment: MTS cell viability assay in 3D HCT116DoxR spheroids; assay type: cell-based, human; conditions: 6-day-old spheroids, 48 h of exposure
BAX and BCL-2 = BAX and BCL-2 protein expression by Western Blot; assay type: cell-based, human; conditions: HCT116DoxR, 48 h, IC50; normalized to β-actin
pUC18 plasmid DNA = experiment: pDNA cleavage in vitro (agarose gel electrophoresis); assay type: biochemical, E. coli; conditions: for concentration at which the interaction with pDNA reaches saturation / pDNA cleavage mode: 100 ng pUC18, 24 h; for pDNA cleavage mode: 5–100 μM complex; for effect of NaN3 (singlet oxygen scavenger) on pDNA cleavage by the complex: 24 h, 50 μM complex + 50 μM NaN3
EB–ct-DNA adduct = experiment: Ethidium bromide displacement fluorescence assay; assay type: binding, calf; conditions: PBS; for apparent binding constant (Kapp): EB displacement, KEB = 1 × 10^7 M^–1; for Stern–Volmer quenching constant KSV: EB–ct-DNA, 0–40 μM complex
fibroblasts = experiment: Cell migration (wound healing) assay; assay type: cell-based, human; conditions: 24 h; complexes at IC50, Dox 0.4 μM; vs DMSO
Excerpt: A wound healing assay was therefore carried out on fibroblasts to study the influence of the Cu(II) complexes on cell migration in vitro. Skin fibroblasts were the model chosen for this assay as they are essential for regenerating damage in this tissue.[85] […]
intrinsic binding constant Kb can be obtained from the ratio of the slope to the intercept of the linear fit of the plot [DNA]/[εa−εf] versus [DNA].
For emission quenching experiments, equimolar solution of ct-DNA and ethidium bromide (EB, Sigma Aldrich) was prepared and allowed to incubate for 2 h in the dark. The tested complexes were titrated into the formed EB–ct-DNA adduct and incubated for additional 30 min. The final concentration of the EB–ct-DNA adduct was 50 μM and the concentration of the complexes varied from 0 to 40 μM. The fluorescence spectra were recorded on FLS-980 spectrofluorometer (Edinburgh Instruments, Livingston, United Kingdom) with excitation wavelength 515 nm and emission wavelength of 620 nm. The apparent binding constant (Kapp) was calculated using the Equations : […]
where I0 and I are the fluorescence intensity in the absence and presence of the complexes; KSV is the Stern-Volmer quenching constant; [Q] is the concentration of the complexes; [Q1/2] is the concentration of the complex causing 50% reduction in the fluorescence intensity; K = 1×107 […]
conditions mentioned before until the presence of a confluent monolayer was detected. A scratch was made on the surface of each well using a sterile 200 μL micropipette tip and the cells were […]
Each plate was then incubated for 24 h in the same conditions mentioned before. […]
The width of each scratch in each image was measured via ImageJ software. […]
The ex-ovo CAM assay was performed to evaluate the copper(II) complexes’ effect on angiogenesis, as already described in literature11,12. […] Newly formed blood vessels were manually counted via ImageJ software. […]
All results were expressed as mean ± SEM of at least two independent biological assays, each obtained by technical duplicates, unless otherwise specified. […]

chicken embryos = experiment: Ex-ovo chick chorioallantoic membrane (CAM) assay; assay type: in vivo; conditions: IC50, vs DMSO control
[5] = Stability and solubility in biological medium (RPMI) by UV-vis; assay type: physicochemical; conditions: colorless RPMI, 50 μM, 37 °C
Description: The stability of complexes 2, 3, 5, and 7 was assessed by UV–vis spectroscopy at 0, 24, and 48 h of incubation at 37 °C.
In Figure S18, it is possible to observe the spectra of all Cu(II) complexes, where high-energy absorption bands correspond to π → π* and n → π* transitions with peaks in the 230–330 and 330–400 nm ranges, respectively, that are associated with the aromatic rings of terpyridines.[39],[49] Analyzing the spectra of complexes 2 and 3, it is possible to detect the existence of 3 bands (maximum ∼240, ∼ 290, and between 320 and 340 nm). […] Complex 7 only has 2 bands of maximum absorbance at 290 nm and between 320 and 340 nm.
Nevertheless, all Cu(II) complex solutions were freshly prepared and added immediately to cells.

HCT116DoxR cells [6] = experiment: Cell cycle progression (PI, flow cytometry); conditions: IC50, thymidine double block
Description: Therefore, we have assessed the cytostatic potential of complexes 2, 3, 5, and 7, and their ability to interfere with the progression of the cell cycle using the fluorescent marker PI. Since this marker can intercalate with DNA, the measurement of the fluorescence emitted by flow cytometry makes it possible to assess the DNA content at each stage of the cell cycle (G0/G1, S, and G2/M).[67] To ensure that all the cells were in the same phase before their exposure to the complexes, a double block was carried out with thymidine, a DNA synthesis inhibitor.[67]
HCT116DoxR cell line was seeded in 6-well plates in a density of 1×10^5 cells/mL and incubated for
24 h. Afterwards, the culture medium was replaced by medium with IC50 concentrations of different
HCT116DoxR cell line was seeded in 6-well plates in a density of 1×10^5 cells/mL, incubated for 8 h in
a humidified atmosphere at 37 °C and 5% (v/v) CO2, and later synchronized in early S-phase with a 2
mM thymidine solution (Merck, Germany) for a 16 h period. Later, medium with thymidine was
replaced by fresh media and, after 8 h a second block with thymidine was performed in the same
concentrations of Cu(II) complexes. 0.1% (v/v) DMSO was used as the vehicle control while 5 μM
After treatment, cells were incubated for 9, 12,

[7] = system: HCT116DoxR (Dox-resistant colorectal carcinoma cell line); experiment: MTS cell viability assay, 2D culture, HCT116DoxR; conditions: read-out: IC50 (μM) HCT116DoxR, 48 h of exposure
Description: as §1
In this regard, cell viability was performed for each of the ligands on HCT116DoxR and fibroblasts.
Cell culture and maintenance
as §2, §3
human primary dermal fibroblasts.
as §4, §5, §6, §7, §8, §9, §10, §11, §12, §13, §14, §15, §16, §17, §18, §19, §20, §21, §22, §23, §24, §25, §26, §27

HCT116DoxR cells [8] = experiment: Annexin V-FITC/PI apoptosis assay by flow cytometry; conditions: 48 h; for cells (%) early apoptosis / cells (%) late apoptosis / cells (%) necrosis / cells (%) viable / percentage of apoptosis (early + late): complexes at IC50, Dox 6 μM, cisplatin 5 μM; for fold increase in apoptotic cells, normalized to DMSO: complexes at IC50, cisplatin 5 μM
Description: To evaluate the cell death mechanism involved in the cytotoxic effect of the selected complexes, a double-staining with Annexin V-FITC and PI was performed. […] The use of Annexin V conjugated with the fluorophore FITC allows the quantification of this interaction and subsequent identification of cells in apoptosis by flow cytometry. Furthermore, PI is a fluorophore that can intercalate with DNA and that can only enter the cell when the membrane is either compromised or ruptured, making it possible to identify cells undergoing late apoptosis and necrosis. Therefore, the double staining makes it possible to distinguish between viable cells (FITC^–; IP^–), those undergoing initial apoptosis (FITC^+; IP^–), those undergoing late apoptosis (FITC^+; IP^+), and those undergoing necrosis (FITC^–; IP^+).[55],[58]
Evaluation of apoptosis induction in HCT116DoxR cell line by flow cytometry The induction of apoptosis in HCT116DoxR cell line was evaluated by flow cytometry, using the
Annexin V-FITC Apoptosis Detection Kit (Thermo Fisher Scientific, Waltham, MA, USA). Cells
were seeded in 6-well plates at a cell density of 1×10^5 cells/mL and incubated for 24 h. Afterwards,
culture medium was replaced by medium with different Cu(II) complexes at their IC50 concentrations.
After 48 h of incubation, cells were washed with PBS 1x, detached from each well with TrypLETM
Express and washed again with PBS 1x. Cells were then resuspended in 1x annexin-binding buffer and
incubated at rt for 15 min with Annexin V-FITC and 100 μg/mL PI.
All samples were analysed by an Attune® Acoustic Focusing Flow Cytometer (Thermo Fischer
Scientific, Waltham, MA, USA) and the results were processed with Attune® Cytometric software

SMILES | IC50 [2] [µM] | IC50 [3] [µM] | IC50 [4] [µM] | IC50 (HCT116DoxR spheroids) [µM] | expression of BAX compared to the DMSO control (BAX and BCL-2) | expression of BCL-2 compared to the DMSO control (BAX and BCL-2) | concentration at which the interaction with pDNA reaches saturation (pUC18 plasmid DNA) [μM] | pDNA cleavage mode (pUC18 plasmid DNA) | effect of NaN3 (singlet oxygen scavenger) on pDNA cleavage by the complex (pUC18 plasmid DNA) | apparent binding constant (Kapp) (EB–ct-DNA adduct) | Stern–Volmer quenching constant KSV (EB–ct-DNA adduct) [M⁻¹] | fibroblast migration (% of remission) (fibroblasts) | formation of new blood vessels after 24 h (chicken embryos) | formation of new blood vessels after 48 h (chicken embryos) | maximum absorbances after 24 or 48 h compared to 0 h (reduction of solubility) [5] | cell cycle progression after 12 h (HCT116DoxR cells [6]) | cell cycle progression after 18 h (HCT116DoxR cells [6]) | IC50 [7] [µM] | cells (%) early apoptosis (HCT116DoxR cells [8]) [%] | cells (%) late apoptosis (HCT116DoxR cells [8]) [%] | other results
F[P-](F)(F)(F)(F)F.[Cl][Cu].c1ccc(-c2cc(-c3ccc4ccccc4n3)cc(-c3ccccn3)n2)nc1 [[Cu(4′-(2-quinolinyl)-terpy)Cl](PF6)] |  |  |  |  |  |  |  |  |  |  |  |  |  |  |  |  |  |  |  |  | toxicity in an in vivo model of CAM (CAM): low toxicity
Cn1cccc1-c1cc(-c2ccccn2)nc(-c2ccccn2)c1.[Cl][Cu][Cl] |  |  |  |  |  |  |  |  |  |  |  |  |  |  |  |  |  |  |  |  | cytotoxic activity [1]: no cytotoxic activity
COc1ccc(-c2cc(-c3ccccn3)nc(-c3ccccn3)c2)c2ccccc12.COc1ccc(-c2cc(-c3ccccn3)nc(-c3ccccn3)c2)c2ccccc12.F[P-](F)(F)(F)(F)F.F[P-](F)(F)(F)(F)F.[Cl][Cu+].[Cl][Cu+] [complex 3, [Cu2Cl2(4′-(4-Methoxy-1-naphthyl)-terpy)2](PF6)2] | 0.13 ± 0.02 | 0.66 ± 0.07 | 6.24 ± 0.03 | 6.35 ± 0.12 | decreases | increases | 50 | single strands | partially reversed | 3.07 × 10^6 M^–1 | 6060 | lower compared to the positive control Dox | antiangiogenic potential | greater decrease in the % of blood vessels formed | slight decrease | delays cell cycle progression in the G2/M phase | delay in cycle progression in the G0/G1 phase | 0.15 ± 0.01 | 51.3 ± 5.7 | 14.9 ± 3.6 | cells (%) necrosis (HCT116DoxR cells [8]): 0.2 ± 0.2%; cells (%) viable (HCT116DoxR cells [8]): 33.7 ± 3.6%; percentage of apoptosis (early + late) (HCT116DoxR cells [8]): 65 to 70%; fold increase in apoptotic cells, normalized to DMSO (HCT116DoxR cells [8]): ~6.4 fold
F[P-](F)(F)(F)(F)F.F[P-](F)(F)(F)(F)F.[Cl][Cu].[Cl][Cu].c1ccc(-c2cc(-c3ccco3)cc(-c3ccccn3)n2)nc1.c1ccc(-c2cc(-c3ccco3)cc(-c3ccccn3)n2)nc1 [complex 5, [Cu2Cl2(4′-(2-Furanyl)-terpy)2](PF6)2] | 0.26 ± 0.03 | 0.79 ± 0.05 | 12.57 ± 0.02 | 14 ± 0.6 | decreases | increases | 50 | single and double strands | almost completely reversed | 1.84 × 10^6 M^–1 | 3640 | lower compared to the positive control Dox | antiangiogenic potential | greater decrease in the % of blood vessels formed | slight decrease | delays cell cycle progression in the G2/M phase | delay in cycle progression in the G0/G1 phase | 0.22 ± 0.01 | 47.2 ± 10.2 | 18.7 ± 5.4 | cells (%) necrosis (HCT116DoxR cells [8]): 0.2 ± 0.2%; cells (%) viable (HCT116DoxR cells [8]): 33.9 ± 5.3%; percentage of apoptosis (early + late) (HCT116DoxR cells [8]): 65 to 70%; fold increase in apoptotic cells, normalized to DMSO (HCT116DoxR cells [8]): ~6.4 fold

Source: paper PMC11017252, “Copper(II) Complexes with 2,2′:6′,2″-Terpyridine Derivatives Displaying Dimeric Dichloro−μ–Bridged Crystal Structure: Biological Activities from 2D and 3D Tumor Spheroids to In Vivo Models” (Journal of Medicinal Chemistry, 2024)
